Here are results for 18 molecules from US12281114B2, “NK3 modulators and uses thereof” (Kallyope, Inc., priority 2023, dated 2025).

The target of one data set is T1, human NK3 (Homo sapiens, UniProt P29371).
T1 sequence (P29371 1-465): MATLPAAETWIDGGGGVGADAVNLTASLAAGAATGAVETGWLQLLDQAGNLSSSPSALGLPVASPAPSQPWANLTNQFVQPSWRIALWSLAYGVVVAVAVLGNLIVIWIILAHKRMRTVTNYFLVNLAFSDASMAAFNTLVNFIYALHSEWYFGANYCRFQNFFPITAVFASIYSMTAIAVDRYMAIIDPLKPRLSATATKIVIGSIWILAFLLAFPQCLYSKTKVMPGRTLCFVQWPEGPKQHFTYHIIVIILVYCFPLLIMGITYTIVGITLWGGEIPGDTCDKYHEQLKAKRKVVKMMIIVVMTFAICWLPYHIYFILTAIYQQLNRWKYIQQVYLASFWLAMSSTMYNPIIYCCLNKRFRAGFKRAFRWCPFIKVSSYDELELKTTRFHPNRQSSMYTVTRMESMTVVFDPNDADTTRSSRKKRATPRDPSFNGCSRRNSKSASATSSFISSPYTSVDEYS
Kind of data set: FLIPR calcium assay in antagonist mode (NKB EC70 challenge). The conditions noted are these: stable cell line expressing human recombinant NK3; antagonist mode vs EC70 of NKB agonist. It counts as cell-based. In outline:
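Recombinant human NK3 stable cells loaded with Calcium 6 dye were given compound, read for 10 min, then challenged with NKB at its predetermined EC70 and read 10 min by FLIPR. The second peak minus baseline was normalized to 10 μM and 0 μM antagonist controls, and fitted for IC50 and efficacy.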

In data set [1] the test system is acute nitroglycerin (NTG) migraine model in rats. Nature of the data set: Acute nitroglycerin (NTG) rat migraine model, periorbital von Frey threshold. As to conditions: male Sprague Dawley rats, 10 mg/kg NTG i.p., 30 mg/kg test compound, 90 min; 50% periorbital threshold after compound / baseline x 100. It counts as in vivo. As for the experimental part: An acute nitroglycerin (NTG) model was used to assess migraine efficacy in rats (for a review see: Sureda-Gibert, P, Neurobiol Pain. 2022 August-December; 12: 100105). Briefly, male Sprague Dawley rats, 8-weeks old (Charles River Laboratories), were pair-housed in a 12-h light cycle room upon facility arrival and left to acclimate for a minimum of 72 h. Animals were provided standard rodent chow (PicoLab Rodent Diet, 5053) and water ad libitum. Following the acclimation period, rats underwent a single behavioral testing apparatus acclimation. Rats were left to freely move and habituate for a minimum of 20 min. The testing apparatus used was a Multiple Configuration Animal Enclosure (Ugo Basile, 37000-007) placed on a self-standing table with a mesh-perforated bottom.
Periorbital threshold was measured using the up-down method (Chaplan, S. R., et al., J Neurosci Methods, 1994 July; 53(1):55-63), in which von Frey filaments (Ugo Basile, 37450-275) of increasing forces (0.4-15 g) were applied to the periorbital region until an application of a filament evoked a response, typically indicated by a rapid withdrawal response or paw swipe to the periorbital region. Once a response was observed, four more readings were obtained following the first change of direction to determine the withdrawal threshold close to 50%. The 50% threshold was then calculated using the following formula: 50% threshold (g)=10^(X+kd)/10^4, where X=the value, in log units, of the final von Frey filament, k=tabular value for the response pattern, and d=the average increment, in log units, between von Frey filaments.
Following acclimation, a baseline assessment was performed, and rats were then randomized into balanced treatment groups using baseline periorbital threshold measurements. On the day of the experiment, rats (n=12/group) were weighed and administered 10 mg/kg NTG (2 mg/mL in 0.9% saline; Henry Schein, NDC-0517-4810-25) by intraperitoneal injection, immediately followed by their assigned compound treatment of either vehicle (0.25% methyl cellulose, 5% Tween 80, 0.02% sodium dodecyl sulfate (SDS) in Hanks' Buffered Salt Solution with Ca^2+ and Mg^2+), 10 mg/kg sumatriptan as a positive control (2 mg/mL in vehicle; Ambeed, A260899-1g) or 30 mg/kg test compound (10 mg/mL in vehicle).
Approximately 70 min post dosing, animals were placed in the behavioral testing apparatus and allowed to habituate to individual enclosures for a minimum of 20 min prior to von Frey assessment. Von Frey measurements were then recorded at 90 and 120. Upon final measurement, rats were immediately euthanized via CO2 asphyxiation followed by exsanguination. Blood was collected in lithium-heparin serum-separating tubes (BD, 365985) and processed for serum collection. Serum samples were then stored at −80° C.
Migraine efficacy (%) was calculated by dividing the 50% threshold (g) following administration of test compound by the baseline 50% threshold (g) and then multiplying by 100.

A further data set has as its target T2, P-glycoprotein (P-gp) (Homo sapiens, UniProt P08183).
T2 construct: expressed in transfected cells; host or cells: MDR1-MDCK II
Kind of data set: P-gp substrate assessment in MDR1-MDCK II cells. It counts as in vitro ADME. As to conditions: dog, MDCK-MDR1, pH 7.4.

T2 sequence (P08183 whole entry): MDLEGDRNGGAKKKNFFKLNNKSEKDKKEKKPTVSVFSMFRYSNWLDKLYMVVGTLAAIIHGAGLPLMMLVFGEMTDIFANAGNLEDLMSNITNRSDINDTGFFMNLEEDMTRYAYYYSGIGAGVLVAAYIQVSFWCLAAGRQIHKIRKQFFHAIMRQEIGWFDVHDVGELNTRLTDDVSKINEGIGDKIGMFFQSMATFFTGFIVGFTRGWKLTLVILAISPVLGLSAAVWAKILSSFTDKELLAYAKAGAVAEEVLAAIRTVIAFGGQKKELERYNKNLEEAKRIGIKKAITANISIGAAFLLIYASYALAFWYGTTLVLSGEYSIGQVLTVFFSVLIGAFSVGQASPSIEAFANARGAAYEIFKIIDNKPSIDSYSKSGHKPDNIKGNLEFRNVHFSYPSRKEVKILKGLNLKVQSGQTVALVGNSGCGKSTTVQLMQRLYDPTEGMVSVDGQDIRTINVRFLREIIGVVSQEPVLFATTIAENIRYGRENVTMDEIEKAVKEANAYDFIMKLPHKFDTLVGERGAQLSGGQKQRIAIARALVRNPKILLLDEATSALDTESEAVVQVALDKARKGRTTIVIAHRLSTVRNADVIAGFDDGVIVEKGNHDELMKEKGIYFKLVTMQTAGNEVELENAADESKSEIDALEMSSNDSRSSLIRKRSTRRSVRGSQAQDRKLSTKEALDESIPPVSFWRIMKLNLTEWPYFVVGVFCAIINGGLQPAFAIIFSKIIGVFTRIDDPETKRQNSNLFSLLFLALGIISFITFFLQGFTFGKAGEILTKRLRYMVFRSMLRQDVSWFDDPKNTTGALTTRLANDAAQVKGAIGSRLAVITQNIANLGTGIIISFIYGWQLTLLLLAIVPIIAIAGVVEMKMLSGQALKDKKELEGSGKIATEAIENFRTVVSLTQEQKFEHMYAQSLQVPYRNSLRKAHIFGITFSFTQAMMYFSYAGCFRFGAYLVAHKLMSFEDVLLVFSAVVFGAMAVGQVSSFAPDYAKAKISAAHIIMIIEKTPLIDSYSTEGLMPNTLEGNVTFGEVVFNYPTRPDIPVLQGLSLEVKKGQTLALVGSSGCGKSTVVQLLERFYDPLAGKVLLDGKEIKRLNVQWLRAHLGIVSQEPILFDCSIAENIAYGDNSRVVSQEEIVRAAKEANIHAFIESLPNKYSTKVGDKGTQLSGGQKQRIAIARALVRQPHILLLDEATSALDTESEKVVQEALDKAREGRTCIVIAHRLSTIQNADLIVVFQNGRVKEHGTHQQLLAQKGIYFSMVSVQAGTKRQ
Procedure for P-glycoprotein (P-gp): MDR1-MDCK II from passage 5-35 were used for P-gp substrate assessment studies. Briefly, test compounds were diluted with transport buffer (HBSS with 10 mM HEPES, pH 7.4) from stock solution to a concentration of 2.00 μM (DMSO<1%) and applied to the apical or basolateral side of the cell monolayer. […] Compounds were quantified by LC/MS/MS analysis based on the peak area ratio of analyte/internal standard. The efflux ratio of each compound was determined according to the following equation: Efflux Ratio=Papp (BA)/Papp (AB).

As to `Cn1cc(-c2cccc(F)c2-c2nc3cc(C(=O)N[C@]45CC[C@](CO)(C4)OC5)ccn3c2Cl)c(F)n1` (single isomer, unassigned; second eluting) [Compound 920, 3-chloro-2-(2-fluoro-6-(3-fluoro-1-methyl-1H-pyrazol-4-yl)phenyl)-N-(1-(hydroxymethyl)-2-oxabicyclo[2.2.1]heptan-4-yl)imidazo[1,2-a]pyridine-7-carboxamide, second eluting enantiomer], the 50% inhibitory concentration (IC50) at human NK3 was determined as 1.06 nM. The “Efficacy (%)” value in data set [1] was 100%.

Take `Cc1nn(C)cc1-c1ccccc1-c1nc2cc(C(=O)N[C@@H]3CO[C@H]4[C@@H]3OC[C@H]4O)ccn2c1Cl` [Compound 7, 3-chloro-2-(2-(1,3-dimethyl-1H-pyrazol-4-yl)phenyl)-N-((3R,3aR,6R,6aR)-6-hydroxyhexahydrofuro[3,2-b]furan-3-yl)imidazo[1,2-a]pyridine-7-carboxamide]: the efflux ratio at 150 min, 2 μM on P-glycoprotein (P-gp) worked out at 32.7. Besides, the IC50 at human NK3 was 1.21 nM. Moreover, the “Efficacy (%)” value in data set [1] is given as 81%.

As to `Cc1nn(C)cc1-c1cc(F)ccc1-c1nc2cc(C(=O)N[C@@H]3CO[C@H]4[C@@H]3OC[C@H]4O)ccn2c1Cl` [Compound 16, 3-chloro-2-(2-(1,3-dimethyl-1H-pyrazol-4-yl)-4-fluorophenyl)-N-((3R,3aR,6R,6aR)-6-hydroxyhexahydrofuro[3,2-b]furan-3-yl)imidazo[1,2-a]pyridine-7-carboxamide], the “Efficacy (%)” value in data set [1] stood at 82%.

For the molecule `Cc1nn(C)cc1-c1cc(F)cc(F)c1-c1nc2cc(C(=O)N[C@@H]3CO[C@H]4[C@@H]3OC[C@H]4O)ccn2c1Cl` [Compound 787, 3-chloro-2-(2-(1,3-dimethyl-1H-pyrazol-4-yl)-4,6-difluorophenyl)-N-((3R,3aR,6R,6aR)-6-hydroxyhexahydrofuro[3,2-b]furan-3-yl)imidazo[1,2-a]pyridine-7-carboxamide], the half-inhibitory concentration (IC50) at human NK3 is 1.51 nM. Besides, the “Efficacy (%)” value in data set [1] came to 70%.

Consider `Cn1cc(-c2cccc(F)c2-c2nc3cc(C(=O)NC45COC(C)(C4)C5)ccn3c2C#N)c(F)n1` [Compound 845, 3-cyano-2-(2-fluoro-6-(3-fluoro-1-methyl-1H-pyrazol-4-yl)phenyl)-N-(1-methyl-2-oxabicyclo[2.1.1]hexan-4-yl)imidazo[1,2-a]pyridine-7-carboxamide], for which, on human NK3, the IC50 was determined as 2.61 nM. In addition, in data set [1], the “Efficacy (%)” value was found to be 92%.

With `Cn1cc(-c2cccc(F)c2-c2nc3cc(C(=O)N4CCC5(CC4)CC(C)(O)C5)ccn3c2Cl)cn1` [Compound 915, (3-chloro-2-(2-fluoro-6-(1-methyl-1H-pyrazol-4-yl)phenyl)imidazo[1,2-a]pyridin-7-yl)(2-hydroxy-2-methyl-7-azaspiro[3.5]nonan-7-yl)methanone], the IC50 on human NK3 worked out at 4.22 nM. The “Efficacy (%)” value in data set [1] is recorded as 92%.

Consider `Cn1cc(-c2cc(F)cc(F)c2-c2nc3cc(C(=O)N[C@H]4C[C@](O)(CO)C4)ccn3c2Cl)c(F)n1` [Compound 922, 3-chloro-2-(2,4-difluoro-6-(3-fluoro-1-methyl-1H-pyrazol-4-yl)phenyl)-N-((1s,3s)-3-hydroxy-3-(hydroxymethyl)cyclobutyl)imidazo[1,2-a]pyridine-7-carboxamide], for which, on human NK3, the IC50 is 2.83 nM.

Consider `Cn1cc(-c2cc(F)cc(F)c2-c2nc3cc(C(=O)N[C@H]4C[C@@](O)(CO)C4)ccn3c2Cl)c(F)n1` [Compound 923, 3-chloro-2-(2,4-difluoro-6-(3-fluoro-1-methyl-1H-pyrazol-4-yl)phenyl)-N-((1r,3r)-3-hydroxy-3-(hydroxymethyl)cyclobutyl)imidazo[1,2-a]pyridine-7-carboxamide], for which the IC50 on human NK3 worked out at 2.36 nM.

As for `Cn1cc(-c2cccc(F)c2-c2nc3cc(C(=O)N[C@H]4CC[C@H](CO)OC4)ccn3c2Cl)c(F)n1` [Compound 924, 3-chloro-2-(2-fluoro-6-(3-fluoro-1-methyl-1H-pyrazol-4-yl)phenyl)-N-((3S,6R)-6-(hydroxymethyl)tetrahydro-2H-pyran-3-yl)imidazo[1,2-a]pyridine-7-carboxamide], the IC50 at human NK3 stood at 0.97 nM.

On to `Cn1cc(-c2cccc(F)c2-c2nc3cc(C(=O)N[C@H]4C[C@](C)(O)C4)ccn3c2C#N)c(F)n1` [Compound 925, 3-cyano-2-(2-fluoro-6-(3-fluoro-1-methyl-1H-pyrazol-4-yl)phenyl)-N-((1r,3r)-3-hydroxy-3-methylcyclobutyl)imidazo[1,2-a]pyridine-7-carboxamide], for which the half-inhibitory concentration (IC50) on human NK3 was 1.85 nM.

On to `Cn1cc(-c2cccc(F)c2-c2nc3cc(C(=O)N[C@H]4CC[C@@H](CO)OC4)ccn3c2C#N)c(F)n1` [Compound 926], for which, on human NK3, the IC50 was 2.21 nM.

As to `Cn1cc(-c2ccc(F)c(F)c2-c2nc3cc(C(=O)N[C@H]4C[C@](C)(O)C4)ccn3c2Cl)c(F)n1` [Compound 927], the IC50 on human NK3 was found to be 2.66 nM.

As to `Cn1cc(-c2cccc(F)c2-c2nc3cc(C(=O)N[C@H]4CC5(C4)C[C@](C)(O)C5)ccn3c2Cl)c(F)n1` (stereo partly drawn) [Compound 928, cis 3-chloro-2-(2-fluoro-6-(3-fluoro-1-methyl-1H-pyrazol-4-yl)phenyl)-N-(6-hydroxy-6-methylspiro[3.3]heptan-2-yl)imidazo[1,2-a]pyridine-7-carboxamide], on human NK3, the IC50 worked out at 1.56 nM.

Consider `Cn1cc(-c2cccc(F)c2-c2nc3cc(C(=O)N[C@H]4CC5(C4)C[C@](C)(O)C5)ccn3c2Cl)c(F)n1` (stereo partly drawn) [Compound 929, trans 3-chloro-2-(2-fluoro-6-(3-fluoro-1-methyl-1H-pyrazol-4-yl)phenyl)-N-(6-hydroxy-6-methylspiro[3.3]heptan-2-yl)imidazo[1,2-a]pyridine-7-carboxamide], for which the IC50 on human NK3 was 2.07 nM.

With `Cn1cc(-c2cccc(F)c2-c2nc3cc(C(=O)N[C@H]4CC[C@](C)(O)CC4)ccn3c2C#N)c(F)n1` [Compound 930, 3-cyano-2-(2-fluoro-6-(3-fluoro-1-methyl-1H-pyrazol-4-yl)phenyl)-N-((1r,4r)-4-hydroxy-4-methylcyclohexyl)imidazo[1,2-a]pyridine-7-carboxamide], at human NK3, the IC50 was 3 nM.

For `Cn1cc(-c2ccc(F)c(F)c2-c2nc3cc(C(=O)NC45COC(C)(C4)C5)ccn3c2C#N)c(F)n1` [Compound 932, 3-cyano-2-(2,3-difluoro-6-(3-fluoro-1-methyl-1H-pyrazol-4-yl)phenyl)-N-(1-methyl-2-oxabicyclo[2.1.1]hexan-4-yl)imidazo[1,2-a]pyridine-7-carboxamide], the IC50 on human NK3 amounted to 6.09 nM.

In the case of `Cn1cc(-c2ccc(F)c(F)c2-c2nc3cc(C(=O)N4CCOCC4)ccn3c2Cl)c(F)n1` [Compound 933, (3-chloro-2-(2,3-difluoro-6-(3-fluoro-1-methyl-1H-pyrazol-4-yl)phenyl)imidazo[1,2-a]pyridin-7-yl)(morpholino)methanone], the IC50 on human NK3 was 5.66 nM.

For the molecule `Cn1cc(-c2cccc(F)c2-c2nc3cc(C(=O)N[C@]45CC[C@](CO)(C4)OC5)ccn3c2Cl)cn1` [Compound 934], the IC50 at human NK3 stood at 9.69 nM.

Usually IC50 stands for the concentration at which inhibition is half-maximal. As usually defined, the efflux ratio is a quotient of directional permeabilities that is used to spot active efflux.
